Measurements reported in patent publication US8591908B2, “Immunogen for preparation of therapeutic vaccines or drugs for treatment of hepatitis B and the producing method and use thereof” (Institute of Immunology, PLA, priority 2002, dated 2013).
Ends that are not written are not given here. * marks the point of attachment. Palmitoyl = CCCCCCCCCCCCCCCC(=O)*

Experiments:
[1] = Solubility in different solution systems; format: physicochemical
Excerpt: (§1) εPA44 was soluble and stable in DMSO, but poorly soluble and stable in other solutions (see Table 5). Thus, DMSO was used as the mobile phase for SEC.

Balb/c mice [2] = assay: Th1 activation, serum Th1/Th2 cytokines by ELISA; format: in vivo; settings: serum 3 weeks after immunization
Method: Balb/c mice (both male and female) of 2-3 Months old were divided into 8 groups, and were immunized with εPA44 at both postpede palmas once a week for three times at different doses: 0.001 nmol, 0.01 nmol, 0.1 nmol, 0.5 nmol, 1 nmol, 10 nmol, 20 nmol, and 40 nmol respectively. 3 weeks after immunization, the mice were bled by removing their eyeballs and serums were collected. Th1/Th2 cytokines were tested by ELISA.

[3] = Stability in different solution systems (RP-HPLC); format: physicochemical
Excerpt: as §1

HBV-DNA transgenic mice = assay: HBV transgenic mice: IFN-γ secreting cells, ELI-SPOT; format: in vivo; settings: 30th day after end of immunization
Method: (§2) The levels of cytokines such as IFN-γ, IL-4, etc. in supernatant were measured by the ELISA method, and the activity of the test drug (CH3(CH2)14COKSSQYIKANSKFIGITEAAASIVSPFIPLLGGGDPRVRGLYFPA) (SEQ ID NO:5) for inducing the differentiation of T cells into Th1/Th2 type was analyzed. […] The expression frequency of IFN-γ secreting cells in peripheral blood lymphocytes was measured by the ELI-SPOT method in said supernatant. […] On the 10th, 20th and 30th day after the end of the three immunizations, bloods were removed, serum isolated, and the contents of HBsAg and HBV-DNA in the serum were separately measured by the ELISA method and quantitative PCR method.
The expression frequency of IFN-γ secreting cells in peripheral blood lymphocytes was measured by the ELI-SPOT method.

[4] = test system: HBV DNA in HBV transgenic mice; assay: HBV transgenic mice: HBV DNA in serum, quantitative PCR; format: in vivo; settings: 10th, 20th, 30th day after three immunizations, 10-1000 U/mouse
Method: as §2

[5] = test system: T2 cells, E6 cells, and HepG2.2.15 cells; assay: HBV-specific effective CTL from hepatitis patients' PBMC, cytotoxicity; format: cell-based, human
Method: Acute and chronic hepatitis blank control groups, acute hepatitis+test drug group and chronic hepatitis+test drug group were included. The PBMC's from the patients were cultured in vitro and stimulated repetitively to generate antigen-specific effective CTL cells and amplified their number. Then they were used to cytotoxically kill peptide antigen pre-coated T2 cells, E6 cells, and HepG2.2.15 cells.

[6] = test system: hepatitis B surface antigen (HBsAg) in HBV transgenic mice; assay: HBV transgenic mice: HBsAg in serum, ELISA; format: in vivo; settings: 10th, 20th, 30th day after three immunizations, 10-1000 U/mouse
Method: as §2

Balb/c mice [7] = assay: Neutralizing antibodies, double-antibody-sandwich and competitive inhibition test; format: in vivo
Method: Balb/c mice of 2-3 Months old (both male and female) were divided into 8 groups […], and were immunized with εPA44 at both postpede palmas once a week for three times at different doses: 0.001 nmol, 0.01 nmol, 0.1 nmol, 0.5 nmol, 1 nmol, 10 nmol, 20 nmol respectively, 3 weeks after the immunization, the mice were bled by removing their eyeballs and serums were collected. Antibodies were tested by the double-antibody-sandwich method. The specificity was tested by antibody competitive inhibition test using of the 10 world wide available monoclonal antibodies.

[8] = Isoelectric point, ampholyte pH gradient isoelectric focusing; format: physicochemical; settings: 8N urea, TritonX-114
Method: Supported ampholyte pH gradient isoelectric focusing was employed. Pretreatment: 8N urea and 2% TritonX-114. Urea at the corresponding concentration and 0.5% TritonX-114 were also added to polyacrylamide gel. Conventional Coomassie brilliant blue was used for dyeing.

[9] = test system: human peripheral blood mononuclear cells (PBMCs); assay: Proliferation of human PBMCs from normal persons, 3H-TdR; format: cell-based; settings: 0.1 μg, 1 μg and 10 μg/ml with IL-2
Method: Anticoagulant peripheral blood was collected from normal persons under sterile conditions, PBMCs were isolated by conventional Ficoll-Hypaque density gradient centrifugation and were cultured in RPMI1640 culture media (containing 10% calf serum, 100 u/ml penicillin-streptomycin, L-glutamine) in vitro on 24-well culture plates at the cell concentration of 10^6/ml. Blank control group, test group and Pre-S(2) control group were included, to which IL-2 (30 IU/ml) and test drug (0.1 μg/ml, 1 μg/ml, 10 μg/ml) were added. After the cells were cultured for 6 days, IL-2 and the test drug were added at the same dose to stimulate the cells again, and then 3H-TdR (1 uCi/ml) was added. After the cells were further cultured for 18 hours, they were collected and tested by liquid scintillation.

[10] = 50% Ethanol-10 mmol/L phosphoric acid

Work on “K(Palmitoyl)SSQYIKANSKFIGITEAAAFLPSDFFPSVGGGDPRVRGLYFPA-OH [SEQ ID NO:1, CH3(CH2)14COKSSQYIKANSKFIGITEAAAFLPSDFFPSVGGGDPRVRGLYFPA]” yielded a solubility ([1]; 0.1 mol/L PB (pH 6.8)) of 10 µg/mL, a solubility ([1]; 2% Tween80-0.1 mol/L PB(pH 6.8)) of 80 µg/mL and a solubility ([1]; 50% Acetonitrile-0.1% TFA) of 1670 µg/mL. The solubility ([1]; 50% DMSO) was 2530 µg/mL, the solubility ([1]; 50% Ethanol-10 mmol/L HCl) was 2480 µg/mL and the solubility [1, 10] was 2430 µg/mL. The solubility ([1]; 50% Methanol-0.1% TFA) was 1540 µg/mL, the solubility ([1]; DMSO) was 11700 µg/mL and the “dose inducing the generation of IFN-γ and IL-2” value (Balb/c mice [2]) was 0.01 nmol. For the same substance, the Stability ([3]; 50% Acetonitrile-0.1% TFA) was “Unstable”, the Stability ([3]; 50% Ethanol-10 mmol/L HCl) was “Unstable” and the Stability [3, 10] was “Unstable”. For the same substance, the Stability ([3]; DMSO) was “Stable*”, the “expression frequency of IFN-γ secreting cells in peripheral blood lymphocytes” value (HBV-DNA transgenic mice; 10-1000 U/mouse) was “increased with the increase of the immunization dose” and the “highest expression frequency of IFN-γ secreting cells” value (HBV-DNA transgenic mice; IFN-α2b at 15000 U/mouse) was 3660 IFN-γ secreting cells/10^6 PBMC. For the same substance, the “HBV-DNA in the serum (copy number, replication level)” value [4] was “obviously decreased in a manner of dose-dependence and time-dependence”, the “target cell-specific lysis rate” value ([5]; PBMCs from acute hepatitis patient in convalescent phase) was “up to 68.6%” and the “target cell-specific lysis rate” value ([5]; PBMCs from chronic hepatitis patient) was “up to 42.6%”. The “specific killing of target cells” value ([5]; PBMCs of hepatitis patients) was “specifically kill aforesaid three target cell lines”, the “HBsAg in the serum” value [6] was “decreased in a manner of dose-dependence and time-dependence” and the “specificity of induced antibodies” value (Balb/c mice [7]; antibody competitive inhibition test with monoclonal antibodies) was “HBV neutralizing antibodies”. For the same substance, the “dose inducing the generation of antibody” value (Balb/c mice [7]; serum 3 weeks after immunization) was 0.01 nmol, the isoelectric point [8] was 7.2 pH and the “proliferation of human PBMCs” value [9] was “stimulated the proliferation of human PBMCs in a manner of dose dependence”.
